Experimental data: US12291502B2, “Topoisomerase II-alpha inhibitors and methods of treating cancer using the same” (The Regents of the University of Colorado, priority 2019, dated 2025)
Several values for one entry are separate records, joined by “and”; a condition that tells them apart may be missing. Identical values can stand only once. Like-named read-outs stand apart in the source and are kept apart here.

Tests used:
[1] = system: E-cadherin promoter activity (EcadPro-RFP) in SW620 cells; test: EcadPro-RFP (mCherry) EMT reporter assay; format: cell-based; details: SW620 tumor organoids; for EC50: Table 2, 72 hours, read-out: % E-cadherin upregulation EC50
Excerpt: (§1) VimPro-GFP and EcadPro-RFP reporter assays. […] 35(38): p. 4990-9.]
as §1

SW620 tumor organoids = test: Tumor organoid cytotoxicity / 3D cell viability (CellTox Green); format: cell-based
Procedure: Tumor organoid cytotoxicity. Fluorescence image-based method: The CellTox™ Green assay (Promega, Madison, WI, USA) was used with 3D tumor organoid to measure spheroid death. 0.1% CellTox™ Green was included in each well at the time of analogs dosing. 10% lysis solution was used as a cell death control. Fluorescence was measured at various time points with 465-510 nm excitation and 520-530 nm emission. Luminescence plate reader method: A 1:1 ratio of CellTiter-Glo™ 3D reagent (Promega) was added to 3D tumor organoid and the plate was shaken at 400 rpm for 30 min before luminescence was read with a PerkinElmer Envision plate reader.
Finally, SW620 tumor organoid cytotoxicity experiments were conducted using the CellTox Green assay, a fluorescence image-based method, to determine whether the inhibition of TCF transcription and effects on EMT are not the result of cytotoxicity. […] All of the analogs tested display IC50 dose response >30 μM and were higher compared to the IC50 values obtained during the downregulation of TCF transcription activity, and the EC50 values obtained for EMT modulation. Thus, the biological effects on TCF-transcription and EMT are not a result of tumor organoid cell death.
(§2) Tumor organoid cytotoxicity. SW620 tumor organoids were grown as previously outlined. CellTox™ Green-Express Cytotoxicity Assay (Promega, WI) solution was prepared per manufacturer's protocol. Briefly, organoids were treated for 72 h with CellTox™ Green Express (0.5×) reagent and various doses of TOP2A inhibitors over a range of 0-to-40 μM. Organoids were then imaged using the Opera Phenix HCS system (PerkinElmer, MA). CellTox™ Green Express was excited at 488 nm and emission was detected at 500-550 nm. Mean intensity of the whole well was utilized for calculating cytotoxicity with Lysis Buffer (Promega, WI, 0.025×) as the 0% viability control and 0.4% DMSO as the 100% viability control. Intensity values were normalized to these controls using GraphPad Prism 7.0 (GraphPad, CA).
as §2, with “CellTox™-Green-Express” for “CellTox™ Green-Express”, “(GraphPad.” for “(GraphPad,”

Human TOP2A = biological target: T1, Human TOP2A (Homo sapiens, UniProt P11388); test: TOP2A DNA decatenation assay (kDNA, agarose gel); format: biochemical; details: for inhibition at 30 µM: 1 h, read-out: % Inhibition TOP2A (30 μM); for inhibition at 30 µM / % Inhibition TOP2A (30 μM): decatenation, 30 μM fixed concentration; for IC50: decatenation dose response; for TOP2A inhibition, result in words: decatenation screen at 30 μM
T1 construct: purchased TopoGEN (Buena Vista, CO)
Procedure: Inhibition of TOP2A activity. Human TOP2A, kDNA, and assay buffers were obtained from TopoGEN (Buena Vista, CO). The synthesized compounds were screened for their TOP2A inhibitory activity by the intensity of DNA decatenation bands on a DNA gel when compared to the vehicle. Compounds were initially incubated with TOP2A (3 U/reaction) for 20 min at a 30 μM and 1.2% DMSO concentration in a 37° C. incubator without CO2.
The decatenation reaction was initiated immediately after by adding 2 mM ATP and 35 ng/reaction of kDNA, then incubated for 1 hour in a 37° C. water bath. The samples were loaded into a 0.8% agarose gel in 1× Tris-Borate-EDTA (TBE) at a 0.2 μg/mL ethidium bromide concentration and allowed to run in an electrophoretic chamber for 1 hour at 100V. Compounds with the highest inhibitory activity were selected for 2-fold serial dilution dose-response assays (58.6 nM-30 μM). The dose-response assays followed the same protocol with the exception of 4 U/reaction of TOP2A.
Inhibition studies of TOP2A and observed structure activity relationships (SAR). DNA catenation/decatenation or linking/unlinking of DNA is one of the main TOP2A functions essential for regulating DNA topology, and this is ATP dependent. […] Thus, as a starting point, the synthesized analogs were screened against TOP2A-dependent decatenation using 30 μM fixed concentrations, and the DNA from reactions were resolved on 0.8% agarose gels containing ethidium bromide.
Moreover, these studies provided interesting SAR, which shed light on the potential lead drug target binding interactions and affinity, biological activity, and future drug design optimization with this unique class of TOP2A inhibitors.
(§3) TOP2A decatenation assay. Human TOP2A, kDNA, and assay buffers were obtained from TopoGEN (Buena Vista, CO). The synthesized compounds were screened for their TOP2A inhibitory activity by the intensity of DNA decatenation bands on a DNA gel when compared to the vehicle. Compounds were initially incubated with TOP2A (3 U/reaction) for 20 min at a 30 μM and 1.2% DMSO concentration in a 37° C. incubator without CO2. The decatenation reaction was initiated immediately after by adding 2 mM ATP and 35 ng/reaction of kDNA, then incubated for 1 h in a 37° C. water bath. The samples were loaded into a 0.8% agarose gel in 1× Tris-Borate-EDTA (TBE) at a 0.2 μg/mL ethidium bromide concentration and allowed to run in an electrophoretic chamber for 1 h at 100V. Compounds with the highest inhibitory activity were selected for 2-fold serial dilution dose-response assays (58.6 nM-30 μM). The dose-response assays followed the same protocol with the exception of 4 U/reaction of TOP2A,
as §3, with “assays (53.6” for “assays (58.6”, “of TOP2A.” for “of TOP2A,”

[2] = Homo sapiens, SW-620, Table 2, 72 hours
[3] = read-out: IC50 TOP2A inhibition
[4] = Table 1, read-out: % Inhibition TOP2A (IC50 Values)

T1 sequence (P11388 whole entry): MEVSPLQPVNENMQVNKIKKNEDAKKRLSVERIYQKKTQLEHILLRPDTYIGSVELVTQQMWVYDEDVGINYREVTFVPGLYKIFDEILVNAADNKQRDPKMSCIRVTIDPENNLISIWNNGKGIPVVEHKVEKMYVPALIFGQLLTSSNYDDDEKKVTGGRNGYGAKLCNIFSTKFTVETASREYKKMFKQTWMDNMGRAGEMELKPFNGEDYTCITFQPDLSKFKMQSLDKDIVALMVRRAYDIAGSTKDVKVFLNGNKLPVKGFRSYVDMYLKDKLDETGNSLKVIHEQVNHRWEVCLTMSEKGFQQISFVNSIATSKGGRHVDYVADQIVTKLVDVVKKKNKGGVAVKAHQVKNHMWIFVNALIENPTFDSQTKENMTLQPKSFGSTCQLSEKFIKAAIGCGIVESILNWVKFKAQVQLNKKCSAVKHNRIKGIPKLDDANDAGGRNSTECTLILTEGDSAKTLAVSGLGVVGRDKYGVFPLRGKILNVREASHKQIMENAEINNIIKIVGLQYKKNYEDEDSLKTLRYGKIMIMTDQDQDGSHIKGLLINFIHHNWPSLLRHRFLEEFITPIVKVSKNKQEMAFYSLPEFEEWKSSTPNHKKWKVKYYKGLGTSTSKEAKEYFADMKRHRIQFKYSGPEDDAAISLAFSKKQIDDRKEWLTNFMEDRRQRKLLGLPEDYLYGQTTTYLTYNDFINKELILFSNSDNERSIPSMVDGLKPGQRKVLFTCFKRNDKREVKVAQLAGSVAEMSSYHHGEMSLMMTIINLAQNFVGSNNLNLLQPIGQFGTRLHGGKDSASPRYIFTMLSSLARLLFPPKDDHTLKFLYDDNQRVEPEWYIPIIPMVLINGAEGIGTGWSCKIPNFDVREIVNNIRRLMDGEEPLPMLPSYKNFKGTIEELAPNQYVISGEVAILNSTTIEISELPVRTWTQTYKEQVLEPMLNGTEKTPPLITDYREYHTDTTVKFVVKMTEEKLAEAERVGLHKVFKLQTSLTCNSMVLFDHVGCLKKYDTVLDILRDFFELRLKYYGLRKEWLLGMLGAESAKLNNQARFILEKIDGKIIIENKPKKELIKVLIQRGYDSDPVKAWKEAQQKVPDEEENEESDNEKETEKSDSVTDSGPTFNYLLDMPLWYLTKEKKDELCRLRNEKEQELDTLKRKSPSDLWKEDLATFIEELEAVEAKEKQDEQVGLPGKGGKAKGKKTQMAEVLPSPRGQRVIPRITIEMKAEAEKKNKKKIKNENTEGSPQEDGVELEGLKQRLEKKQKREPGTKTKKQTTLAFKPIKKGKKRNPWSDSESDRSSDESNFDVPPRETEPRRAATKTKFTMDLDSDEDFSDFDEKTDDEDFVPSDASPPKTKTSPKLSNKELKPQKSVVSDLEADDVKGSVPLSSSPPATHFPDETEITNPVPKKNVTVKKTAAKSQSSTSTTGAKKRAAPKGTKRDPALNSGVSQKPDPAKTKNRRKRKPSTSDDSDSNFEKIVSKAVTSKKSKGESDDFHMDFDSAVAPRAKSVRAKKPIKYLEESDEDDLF

SMILES	EC50 ([1]; Homo sapiens, SW-620) [µM]	IC50 (SW620 tumor organoids; [2]) [µM]	inhibition at 30 µM (Human TOP2A; Table 1) [%]	IC50 (Human TOP2A; [3])	EC50 [1] [µM]	IC50 (SW620 tumor organoids; Table 2, 72 hours) [µM]	IC50 (Human TOP2A; [4]) [µM]	% Inhibition TOP2A (30 μM) (Human TOP2A; Table 1) [%]	E-cadherin upregulation (EcadPro-RFP), in words [1]	TOP2A inhibition, result in words (Human TOP2A)
O=C(CCN1CCOCC1)Nc1ccc2c(-c3cc(F)ccc3O)ccnc2c1O [Analog 42]	5.9	> 30	90	0.6 µM						
CC(C)(C)C(=O)Nc1ccc2c(-c3ccccc3)ccnc2c1O [Analog 39]				~1 µM	3.1	> 30	1.3	97.0		
CC(=O)Nc1ccc2c(-c3cc(F)ccc3O)ccnc2c1O [Analog 7]	5.3	> 30	99	5.81 µM and 5.8 µM					upregulation of E-cadherin	complete enzyme inhibition
CC(=O)Nc1ccc2c(-c3ccoc3)ccnc2c1O [Analog 56]	10.6	> 30	86				6.4			
CC(=O)Nc1ccc(-c2ccnc3c(O)c(NC(C)=O)ccc23)cc1 [Analog 35]					5.5	> 30	1.9	97.0		restored inhibitory activity against TOP2A
Cn1ccc2c(c1=O)C(=O)c1nccc3c1C2NC1=CCC=CC13 (stereo not shown) [neo, neoamphimedine, reference compound]										significantly inhibits TOP2A mediated DNA decatenation
